Laboratory results reported in patent publication US20110319362A1, “STAT3 LIGANDS AND THERAPEUTIC USES THEREOF” (priority 2008, published 2011).
Read-outs that look alike come from different tables or passages of the source. Values belong to the molecule of their own block, whether it stands above or below them.

Tests used:
STAT3 protein = biological target: T1, STAT3 protein (Homo sapiens, UniProt P40763); assay: In vitro competitive STAT3 binding assay (fluorescence polarization)
T1 construct: human STAT3 protein (residues 122-722) fused to His-tag; His-tag
From the text: To quantitatively determine the binding affinities of STAT3 inhibitors to STAT3 protein, a sensitive and quantitative in vitro binding assay was developed based upon fluorescence polarization (FP) method. For this FP assay, 5-carboxyfluorescein (5-Fam) was coupled to a phosphopeptide (phospho-Tyr-Leu-Pro-Gln-Thr-Val-amide) with two beta-alanine and one glycine residues as the spacer between 5-Fam and the phosphopeptide to obtain 5-Fam-beta-Ala-beta-Ala-Gly-phospho-Tyr-Leu-Pro-Gln-Thr-Val-amide as the fluorescently tagged tracer, which was named as STT2 peptide. […] The recombinant human STAT3 protein (residues 122-722) fused to His-tag was stable and soluble.
Competitive binding experiments were carried out using 150 nM of STAT3 protein and 5 nM of STT2 peptide with different concentrations of a tested STAT3 inhibitor. For each experiment, two controls were included. One control contained STAT3 protein and STT2 peptide, and the second control contained STT2 peptide only. The polarization values were measured after 2-3 hours of incubation using an ULTRA READER (Tecan U.S. Inc., Research Triangle Park, N.C.). IC50 values, the inhibitor concentration at which 50% of the fluorescently tagged STT2 peptide is displaced by STAT3 inhibitors, was determined from a plot using nonlinear least-squares analysis using GRAPHPAD PRISM software (GraphPad Software, Inc., San Diego, Calif.). […]

[1] = tested on: MDA-MB-231 cancer cell line; assay: Cell growth assay (WST-8); format: cell-based; conditions: Homo sapiens, MDA-MB-231, 96 h, WST-8, 4 days
Experimental: (§1) The effect of STAT3 compounds on cell growth was evaluated by a WST-8 [2-(2-methoxy-4-nitrophenyl)-3-(4-nitrophenyl)-5-(2,4-disulfophenyl)-2H-tetrazolium, monosodium salt assay (Dojindo Molecular Technologies, Inc). Cells (3000-4000 cells in each well) were cultured in 96-well tissue culture plates in medium (200 μL) containing various concentrations of STAT3 compounds for 4 days. At the end of incubation, WST-8 dye (20 μL) was added to each well and incubated for an additional 1-3 h, and then the absorbance was measured in a microplate reader (Molecular Devices) at 450 nm. Cell growth inhibition was evaluated as the ratio of the absorbance of the sample to that of the control.

[2] = tested on: MDA-MB-468 cancer cell line; assay: Cell growth assay (WST-8); format: cell-based; conditions: Homo sapiens, MDA-MB-468, 96 h, WST-8, 4 days
Experimental: as §1

[3] = read-out: Inhibition of cell growth IC50, MDA-MB-231 cancer cell line
[4] = read-out: Inhibition of cell growth IC50, MDA-MB-468 cancer cell line
[5] = Table 2 prints no column heads, columns and unit as in Table 1, read-out: Inhibition of cell growth IC50, MDA-MB-231 cancer cell line (pro-drugs, Table 2)
[6] = Table 2 prints no column heads, columns and unit as in Table 1, read-out: Inhibition of cell growth IC50, MDA-MB-468 cancer cell line (pro-drugs, Table 2)

T1 sequence (P40763 122-722): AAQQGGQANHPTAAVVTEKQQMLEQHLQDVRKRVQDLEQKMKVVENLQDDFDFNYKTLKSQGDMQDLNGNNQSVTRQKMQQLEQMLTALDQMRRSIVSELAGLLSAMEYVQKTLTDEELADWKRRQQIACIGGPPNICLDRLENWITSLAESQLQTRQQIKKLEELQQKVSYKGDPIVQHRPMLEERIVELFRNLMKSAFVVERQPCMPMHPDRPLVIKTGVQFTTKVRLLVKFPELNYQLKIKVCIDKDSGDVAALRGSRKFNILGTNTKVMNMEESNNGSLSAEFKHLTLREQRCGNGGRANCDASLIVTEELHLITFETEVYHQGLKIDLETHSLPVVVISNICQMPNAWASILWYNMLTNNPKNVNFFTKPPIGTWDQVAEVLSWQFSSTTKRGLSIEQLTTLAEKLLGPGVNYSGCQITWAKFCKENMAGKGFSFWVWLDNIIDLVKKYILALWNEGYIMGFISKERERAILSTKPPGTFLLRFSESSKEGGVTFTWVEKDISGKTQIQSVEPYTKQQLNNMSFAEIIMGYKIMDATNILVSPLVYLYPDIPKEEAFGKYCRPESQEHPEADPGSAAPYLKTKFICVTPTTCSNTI

SMILES: O=C(CC[C@H](NC(=O)[C@@H]1CCC2CCCC[C@H](NC(=O)[C@H](Cc3ccc(OP(=O)(O)O)cc3)NC(=O)OCc3ccccc3)C(=O)N21)C(=O)NCc1ccccc1)NC(c1ccccc1)(c1ccccc1)c1ccccc1 (stereo partly shown)
IC50 (STAT3 protein): < 20 µM | IC50 [1, 3]: < 50 µM | IC50 [2, 4]: < 50 µM

SMILES: NC(=O)CC[C@H](NC(=O)[C@@H]1CCC2CCCC[C@H](NC(=O)[C@H](Cc3ccc(OP(=O)(O)O)cc3)NC(=O)CCOCCOCCOCCOCCNC(=O)CCCCC3SCC4NC(=O)NC43)C(=O)N21)C(=O)NCc1ccccc1 (stereo partly shown)
IC50 (STAT3 protein): < 1 µM

SMILES: NC(=O)CC[C@H](NC(=O)[C@@H]1CCC2CCNC[C@H](NC(=O)[C@@H](N)Cc3ccc(OP(=O)(O)O)cc3)C(=O)N21)C(=O)NCc1ccccc1 (stereo partly shown)
IC50 (STAT3 protein): < 100 µM | IC50 [1, 3]: > 100 µM | IC50 [2, 4]: > 100 µM

SMILES: CCCCCCCCN(CCCCCCCC)[C@@H](Cc1ccc(OP(=O)(O)O)cc1)C(=O)N[C@H]1CCCCC2CC[C@@H](C(=O)N[C@@H](CCC(N)=O)C(=O)NCc3ccccc3)N2C1=O (stereo partly shown)
IC50 (STAT3 protein; FP competitive binding, fluorescently tagged STT2 peptide tracer, read-out: Binding affinities to STAT3 IC50): < 100 µM | IC50 [1, 3]: > 100 µM

SMILES: CC[C@H](NC(=O)[C@@H]1CCC2CCCC[C@H](NC(=O)[C@H](Cc3ccc(OP(=O)(O)O)cc3)NC(=O)OCc3ccccc3)C(=O)N21)C(=O)NCc1ccccc1 (stereo partly shown)
IC50 (STAT3 protein): > 10 µM | IC50 [1, 3]: > 30 µM | IC50 [2, 4]: > 30 µM

SMILES: NC(=O)CC[C@H](NC(=O)[C@@H]1CCC2CCCC[C@H](NC(=O)CCc3ccc(OP(=O)(O)O)cc3)C(=O)N21)C(=O)NCc1ccccc1 (stereo partly shown)
IC50 (STAT3 protein): < 5 µM | IC50 [1, 3]: > 100 µM | IC50 [2, 4]: > 100 µM

SMILES: CCCCCCCCCCCCCCCCNC(=O)[C@H](CCC(N)=O)NC(=O)[C@@H]1CC[C@@H]2CCCC[C@H](NC(=O)[C@H](Cc3ccc(OP(=O)(O)O)cc3)NC(=O)CCN3CCOCC3)C(=O)N21
IC50 (STAT3 protein): < 5 µM | IC50 [1, 3]: < 40 µM | IC50 [2, 4]: < 40 µM

SMILES: CCCCCCCCCCCCCCCCN1CCN(CCC(=O)N[C@@H](Cc2ccc(OP(=O)(O)O)cc2)C(=O)N[C@H]2CCCCC3CC[C@@H](C(=O)NCCc4nnn[nH]4)N3C2=O)CC1 (stereo partly shown)
IC50 [1, 3]: < 50 µM | IC50 [2, 4]: < 50 µM

SMILES: CC(C)(C)C(=O)OCOP(=O)(Cc1ccc(C[C@H](NC(=O)OCC2c3ccccc3-c3ccccc32)C(=O)N[C@H]2CCCCC3CC[C@@H](C(=O)N[C@@H](CCC(N)=O)C(=O)NCc4ccccc4)N3C2=O)cc1)OCOC(=O)C(C)(C)C (stereo partly shown)
IC50 [1, 5]: < 10 µM | IC50 [2, 6]: < 10 µM

SMILES: CC(C)(C)C(=O)OCOP(=O)(COc1ccc(C[C@H](NC(=O)OCc2ccccc2)C(=O)N[C@H]2CCCCC3CC[C@@H](C(=O)N[C@@H](CCC(N)=O)C(=O)NCc4ccccc4)N3C2=O)cc1)OCOC(=O)C(C)(C)C (stereo partly shown)
IC50 [1, 5]: > 50 µM | IC50 [2, 6]: > 50 µM

SMILES: CC(C)(C)C(=O)OCOP(=O)(O)COc1ccc(C[C@H](NC(=O)OCc2ccccc2)C(=O)N[C@H]2CCCCC3CC[C@@H](C(=O)N[C@@H](CCC(N)=O)C(=O)NCc4ccccc4)N3C2=O)cc1 (stereo partly shown)
IC50 [1, 5]: > 50 µM | IC50 [2, 6]: > 50 µM

IC50 [2, 6]: < 30 µM
SMILES: CC(C)(C)C(=O)OCOP(=O)(OCOC(=O)C(C)(C)C)C(F)(F)c1ccc(/C=C/C(=O)N[C@H]2CCCCC3CC[C@@H](C(=O)NCCc4cn[nH]c4)N3C2=O)cc1 (stereo partly shown)

IC50 [2, 6]: > 100 µM
SMILES: CC(C)(C)C(=O)OCOP(=O)(OCOC(=O)C(C)(C)C)C(F)(F)c1ccc(/C=C/C(=O)N[C@H]2CCCCC3CC[C@@H](C(=O)N[C@@H](CCC(N)=O)C(=O)NCc4ccccc4)N3C2=O)cc1 (stereo partly shown)

IC50 [2, 6]: > 100 µM
SMILES: CCCCCCCCCCCCCCCCOP(=O)(OCCCCCCCCCCCCCCCC)C(F)(F)c1ccc2cc(C(=O)N[C@H]3CCCC[C@H]4CC[C@@H](C(=O)NCCc5cn[nH]c5)N4C3=O)[nH]c2c1

IC50 [2, 6]: > 100 µM
SMILES: CCCCCCCCCCCCCCCCOP(=O)(OCCCCCCCCCCCCCCCC)C(F)(F)c1ccc2cc(C(=O)N[C@H]3CCCC[C@H]4CC[C@@H](C(=O)N(CC)CC)N4C3=O)[nH]c2c1

SMILES: CCCCCCCCCCCCCCCCOP(=O)(OCCCCCCCCCCCCCCCC)C(F)(F)c1ccc2cc(C(=O)N[C@H]3CCCC[C@H]4CC[C@@H](C(=O)NC(CCC(N)=O)C(=O)NCc5ccccc5)N4C3=O)[nH]c2c1 (stereo partly shown)
IC50 [2, 6]: < 30 µM
